For data set [1] the following is noted: in vivo.
The conditions of data set [2]: cited from earlier work.
The format of data set [3] is in vivo. To be noted: rats; in combination with piperine.

Turning to `O=C(/C=C/C=C/c1ccc2c(c1)OCO2)N1CCCCC1` [Piperine, (E, E) 1-[5-(1,3-benzodioxyl-5-yl)-1-oxo-2,4-pentadenyl] piperidine], the “bioavailability of the drugs in blood” value in data set [1] is listed as “increase in the bioavailability”. In addition, the “solubility in organic solvents” value in data set [2] (benzene, chlorform, ether, ethyl acetate, dichloromethane, alcohol, acetic acid) was “soluble”. In addition, in data set [2] (pet. ether), the “solubility in pet. ether” value is “insoluble”. Further, the solubility in water result in data set [2] (water) is recorded as “insoluble”.
Consider `NNC(=O)c1ccncc1` [isoniazid], for which, in data set [3], the “AUC compared to drugs without piperine in equivalent doses” value is listed as “very high AUC” and the plasma levels entry was “significant increase”.
The matching figures for `NC(=O)c1cnccn1` [pyrazinamide]: “very high AUC” and “significant increase”.
`CO[C@H]1/C=C/O[C@@]2(C)Oc3c(C)c(O)c4c(O)c(c(/C=N/N5CCN(C)CC5)c(O)c4c3C2=O)NC(=O)/C(C)=C\C=C\[C@H](C)[C@H](O)[C@@H](C)[C@@H](O)[C@@H](C)[C@H](OC(C)=O)[C@@H]1C` [rifampicin]: in data set [3], the “AUC compared to drugs without piperine in equivalent doses” value is on record as “very high AUC” and the plasma levels entry is on record as “significant increase”. The “bioavailability in combination with piperine” value in data set [1] was “significantly increasing the bioavailability”.
